This is an account of results in US4694018A, “Substituted 1,5-diphenyl-2-pyrrolepropionic acids and derivatives” (G. D. Serale & Co., priority 1985, dated 1987).

By IC50 is commonly meant the concentration at which inhibition is half-maximal. Usually inhibition stands for the percentage by which the read-out fell short of the control.

Assay [1] concerns the target T1, 5-lipoxygenase (Rattus norvegicus, UniProt P12527).
T1 construct: supernatant fraction of Rat Basophilic Leukemia Cell Homogenate (RBL-1) serves as a 5-lipoxygenase enzyme source; endogenous in cells; host or cells: RBL-1 (rat basophilic leukemia cells), 100,000×g supernatant of homogenate
T1 sequence (P12527 1-673): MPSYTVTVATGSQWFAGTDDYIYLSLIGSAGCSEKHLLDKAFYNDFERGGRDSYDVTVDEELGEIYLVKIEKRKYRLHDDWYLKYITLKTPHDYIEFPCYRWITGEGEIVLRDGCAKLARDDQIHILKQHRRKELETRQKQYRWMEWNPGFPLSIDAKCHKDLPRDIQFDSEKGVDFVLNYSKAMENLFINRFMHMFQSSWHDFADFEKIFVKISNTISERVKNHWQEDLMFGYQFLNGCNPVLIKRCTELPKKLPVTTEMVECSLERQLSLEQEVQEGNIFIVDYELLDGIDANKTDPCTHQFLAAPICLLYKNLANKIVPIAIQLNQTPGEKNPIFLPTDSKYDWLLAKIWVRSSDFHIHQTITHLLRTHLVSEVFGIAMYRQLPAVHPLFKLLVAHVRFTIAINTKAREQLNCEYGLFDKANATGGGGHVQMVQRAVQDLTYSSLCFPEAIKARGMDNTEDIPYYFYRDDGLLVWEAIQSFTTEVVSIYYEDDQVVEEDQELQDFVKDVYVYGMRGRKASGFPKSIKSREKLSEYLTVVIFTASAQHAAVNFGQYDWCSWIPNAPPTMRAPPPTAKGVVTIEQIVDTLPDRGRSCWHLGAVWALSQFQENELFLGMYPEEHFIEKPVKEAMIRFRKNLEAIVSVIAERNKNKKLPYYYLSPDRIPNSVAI
As to the kind of experiment: Inhibition of 5-lipoxygenase, in vitro (5-HETE synthesis by RBL-1 homogenate 100,000×g supernatant). Type of assay: biochemical. Conditions: RBL-1 homogenate supernatant, 5-HETE from [1-14C]-arachidonic acid with Ca++; read-out: Rat Basophilic Leukemia Cell- Inhibition IC50. The method, then: (1) Inhibition of 5-lipoxygenase, in vitro: anti-inflammatory, anti-allergyactivities.
The 100,000×g supernatant fraction of Rat Basophilic Leukemia Cell Homogenate (RBL-1) serves as a 5-lipoxygenase enzyme source. The enzyme is incubated with [1-^14 C]-arachidonic acid and Ca++ in the presence and absence of test compound. The product of 5-lipoxygenase, 5-hydroxyeicosatetraenoic acid (5-HETE), is separated by thin-layer chromatography and measured by radioactivity. A compound inhibiting 5-HETE synthesis by 30% or more is considered active at that concentration.

Assay [2] concerns SRS synthesis by Rat Basophilic Leukemia Cell (RBL-1) cells. As to the kind of experiment: Inhibition of slow reacting substance (SRS) biosynthesis in RBL-1 cells. Type of assay: cell-based. The following applies: ionophore A23187, guinea pig ileum bioassay. Here is the method:
(2) Inhibition of slow reacting substance (SRS) biosynthesis in cells.
SRS synthesis by Rat Basophilic Leukemia Cell (RBL-1) cells is induced by incubation of cells with ionophore A23187 alone and in combination with the test compound. The SRS released into the culture media is measured. The percent inhibition of SRS production is estimated by determining the doses of treated and control media needed in the tissue bath to produce equivalent contractions of segments of isolated guinea pig ileum.
Initial screening doses of test compounds are 1×10^-4 M and 1×10^-5 M.

Assay [3] has as its system bronchoconstricting effects. Conditions: versus histamine; cited from earlier work.

Turning to `O=C(O)CCc1ccc(-c2ccc(F)cc2)n1-c1cc(Cl)ccc1O` [Example 1, 1-(5-chloro-2-hydroxyphenyl)-5-(4-fluorophenyl)-1H-pyrrole-2-propanoic acid], the 50% inhibitory concentration (IC50) in assay [1] amounted to 0.83 µM. In assay [2], the inhibition at 5 µM was found to be 82%. As for `NC(=O)CCc1ccc(-c2ccc(F)cc2)n1-c1cc(Cl)ccc1O` [Example 4, 1-(5-chloro-2-hydroxyphenyl)-5-(4-fluorophenyl)-1H-pyrrole-2-propanamide], the IC50 in assay [1] turned out to be 2.4 µM. Same read-out and setting: the value for `O=C(O)CCc1ccc(-c2ccc(Cl)cc2)n1-c1cc(Cl)ccc1O` [Example 5, 1-(5-chloro-2-hydroxyphenyl)-5-(4-chlorophenyl)-1H-pyrrole-2-propanoic acid] was 10 µM; that for `COc1ccc(-c2ccc(CCC(=O)O)n2-c2cc(Cl)ccc2O)cc1` [Example 7, 1-(5-chloro-2-hydroxyphenyl)-5-(4-methoxyphenyl)-1H-pyrrole-2-propanoic acid] was 35 µM.

As to `CCCCC/C=C\C\C=C/C=C/C=C/[C@@H](SC[C@H](NC(=O)CC[C@H](N)C(=O)O)C(=O)NCC(=O)O)[C@@H](O)CCCC(=O)O` [LTC4], in assay [3], the “potency relative to histamine in causing long lasting bronchoconstricting effects” value is “at least 100 times”.
